Assay results as given in patent US20250120964A1, “USE OF NOVEL MOLECULAR GLUE” (ASTROGEN, INC., priority 2023, published 2025).

Legend:
[1] = tested on: 83NS (GSC cell line derived from a GBM patient) orthotopic glioblastoma model; test: In vivo orthotopic glioblastoma xenograft model, survival; details: mice, oral daily 50 mg/kg for 4 weeks, 83NS orthotopic model
Protocol: An in vivo experiment was carried out using a xenograft model. Specifically, 83NS (GSC cell line derived from a GBM patient) was used to construct an orthotopic glioblastoma model in such a way that 1×10^4 cells were injected into the brain of each of mice (n=16) at a volume of 3 μl. Thereafter, a vehicle was administered to mice (n=8), and AST-DT-218 was orally administered daily to the remaining mice (n=8) at a concentration of 50 mg/kg for 4 weeks, […]. On the other hand, the drug to be administered was changed to AST-DT-135, and the same experiment was carried out.

U87 cells [2] = test: Measurement of sub G1 population (flow cytometry); format: cell-based; details: 48 hours, 0.5 μM and 1 μM
Protocol: The sub G1 population was measured to check whether AST-DT-218 induces DNA fragmentation and apoptosis as in Experimental Example 3-1. […] The value of the sub G1 population of cells was measured using a flow cytometry apparatus (FIG. 5).

[3] = tested on: U373 glioblastoma-derived brain cancer cell line; test: Dose response curve (DRC), cell survival, U373; format: cell-based; details: Homo sapiens, U373 MG; Glioblastoma U373, 48 hours, highest concentration 10 μM; read-out: IC50 of AST-DT-218, U373
Protocol: (§1) The DRC was created in order to check whether AST-DT-218 is effective in the cell death in the brain cancer. First, glioblastoma-derived brain cancer cell lines (U87 and U373) were cultured in the respective flasks to prepare cells that had reached the logarithmic growth stage. Then, the cells were washed with PBS, harvested with trypsin, centrifuged to adjust the cell density, and then resuspended in a suitable culture medium, and the cells were dispensed into a 96-well plate. Cells were cultured until they were attached to the plate and stabilized, AST-DT-218 and a control group (lenalidomide, pomalidomide) were prepared and diluted to a variety of concentrations (½ dilution from the highest concentration of 10 μM, 10-point). The cells in the well of the plate were treated for 48 hours with each compound at individual concentrations, and the cells were cultured to react with the compound. After the culture was completed, the number of cells was measured through the nuclear staining of the cells to evaluate the cell survival rate. The cell survival rate at each concentration was measured to collect data. Then, the DRC was created (FIG. 6 and FIG. 7), and IC50 was calculated (Table 3).

[4] = tested on: U87 brain cancer cell line; test: In vitro cell survival assay (nuclear staining), U87; format: cell-based; details: for IC50: U87, 48 hours treatment, cell number by nuclear staining
Protocol: (§2) An in vitro experiment was carried out to check whether the compound (AST-DT-218) prepared in Example 2 was effective in the cell death in the brain cancer. First, brain cancer cell lines (U87, U373, and SK-N-SH) were cultured in the respective flasks to prepare cells that had reached the logarithmic growth stage. Then, the cells were washed with PBS, harvested with trypsin, centrifuged to adjust the cell density, and then resuspended in a suitable culture medium, and the cells were dispensed into a 96-well plate. The culture was carried out until the cells were attached to the plate and stabilized. AST-DT-218 and temozolomide, a conventional therapeutic agent for glioblastoma, were prepared and diluted at various concentrations (½ dilution from the highest concentration of 50 μM, 10-point). The cells in the well of the plate were treated for 48 hours with each compound at individual concentrations, and the cells were cultured to react with the compound. After the culture was completed, the number of cells was measured through the nuclear staining of the cells to evaluate the cell survival rate (FIG. 1), and IC50 was calculated (Table 2).

U87 cells [5] = test: Western blotting of gamma-H2AX and cleaved PARP; format: cell-based
Protocol: The following experiments were carried out to check whether AST-DT-218 induces DNA fragmentation and apoptosis. First, U87 cells were cultured, the cells were separated using Trypsin-EDTA when the cells grew sufficiently, the cells were plated and distributed uniformly on a 12-well plate, and the cells were treated with AST-DT-218 after being attached. Subsequently, the cells were washed with PBS, proteins were extracted using a cell lysis buffer, and the cell extract was centrifugated to collect the supernatant. Then, protein samples having the same concentration were loaded onto an SDS-PAGE gel and subjected to electrophoresis, and the proteins were transferred to a PVDF membrane. After blocking the membrane with 5% skim milk (or BSA), each of the antibodies against γ-H2AX (DNA damage marker), cleaved PARP (apoptosis marker), and beta-actin was treated at 4° C. for 16 hours. The Western blotting results were analyzed to evaluate the expression levels of gamma-H2AX and cleaved PARP. Beta-actin was used as a loading control to check the consistency of the protein loading.

[6] = tested on: SK-N-SH brain cancer cell line; test: In vitro cell survival assay (nuclear staining), SK-N-SH; format: cell-based; details: Homo sapiens, 48 hours treatment, cell number by nuclear staining
Protocol: as §2

[7] = tested on: U87 glioblastoma-derived brain cancer cell line; test: Dose response curve (DRC), cell survival, U87; format: cell-based
Protocol: as §1

[8] = tested on: U373 brain cancer cell line; test: In vitro cell survival assay (nuclear staining), U373; format: cell-based; details: Homo sapiens, U373 MG; U373, 48 hours treatment, cell number by nuclear staining
Protocol: as §2

U87 cells [9] = test: Propidium iodide (PI) apoptosis assay; format: cell-based; details: flow cytometry
Protocol: A PI apoptosis assay was carried out to check whether AST-DT-218 induces DNA fragmentation and apoptosis as in Experimental Example 3-1. A PI detection kit was prepared, propidium iodide (PI) was added to the U87 cells that had been treated with AST-DT-218, and a reaction was allowed to proceed at room temperature in a dark room for 10 minutes. Then, PI fluorescence was measured using a flow cytometry apparatus (FIG. 4).

U87 cells [10] = test: Colony-formation assay; format: cell-based; details: cultured about two weeks, crystal violet
Protocol: U87 cells, which are a brain cancer cell line, were cultured, the cells were separated using Trypsin-EDTA when the cells grew sufficiently, the cells were distributed uniformly on a 12-well plate, and the cells were treated with AST-DT-218 in each well after being attached. Then, the cells were cultured for about two weeks in an environment of 37° C. and about 5% CO2. When the cultivation was completed, the cells were fixed. Then, the colonies were stained with a crystal violet solution, and after the staining, the colonies were washed with PBS to remove background staining. A microscope was used to observe the colonies, and the number and size of the colonies were measured and quantified (FIG. 2).

## CCC[C@H](C)Nc1cccc2c1C(=O)N(C1CCC(=O)NC1=O)C2=O (stereo partly drawn) [AST-DT-135, 2-(2,6-dioxopiperidin-3-yl)-4-(((S)-pentan-2-yl)amino)isoindoline-1,3-dione]
[1]
  survival rate (Kaplan-Meier analysis) versus vehicle: significantly increased survival rate

## COc1ccc([C@@H](C)Nc2cccc3c2C(=O)N(C2CCC(=O)NC2=O)C3=O)cc1 (stereo partly drawn) [AST-DT-218, 2-(2,6-dioxopiperidin-3-yl)-4-(((R)-1-(4-methoxyphenyl)ethyl)amino)isoindoline-1,3-dione]
[1]
  survival rate (Kaplan-Meier analysis) versus vehicle: significantly increased survival rate
U87 cells [2]
  value of the sub G1 population: increased
[3]
  IC50: 1.24 µM
[4]
  IC50: 3.39 µM
[4]; brain cancer cell lines U87, U373, SK-N-SH, summary of Table 2
  cell death efficacy compared with temozolomide: efficacy superior to temozolomide
U87 cells [5]
  DNA fragmentation and apoptosis (expression of gamma-H2AX and cleaved PARP): induced DNA fragmentation and apoptosis
[6]
  IC50: 0.239 µM
[7]; Glioblastoma U87, 48 hours, highest concentration 10 μM, read-out: IC50 of AST-DT-218, U87
  IC50: 3.36 µM
[7]; U87 and U373, DRC
  cell death of brain cancer cells compared with lenalidomide and pomalidomide: effective in the cell death of the brain cancer cells
[8]
  IC50: 0.7 µM
U87 cells [9]
  DNA fragmentation and apoptosis (PI fluorescence): induced DNA fragmentation and apoptosis
U87 cells [10]
  formation of colonies: significantly reduced the formation of colonies

## Cn1nnc2c(C(N)=O)ncn2c1=O [Temozolomide, temozolomide, reference compound]
[4]
  IC50: 291 µM
[6]
  IC50: 24.6 µM
